# Reference: patent US10993920B2, “2-dodecyl-6-methoxycyclohexa-2,5-diene-1,4-dione as a cancer therapeutic” (MIDDLE TENNESSEE STATE UNIVERSITY, priority 2014, dated 2021)
# Assays:
# [1] = test system: HMEC; assay: Anti-proliferation assay (PrestoBlue), normal cell control; assay type: cell-based, human; details: for cell death: HMEC
# Experimental: BT20 and MCF-7, human breast carcinoma cell lines (ATCC), were maintained in RPMI 1640 and Dulbecco's Modified Eagle Medium (DMEM) (Sigma), respectively. THP-1, a human monocytic leukemic cell line (ATCC), was maintained in RPMI 1640. HMEC, a normal human mammary epithelial cell line (ATCC), was maintained in McCoy's 5A (ATCC). All mediums were supplemented with 10% fetal bovine serum (FBS) (Gibco) and 1% penicillin-streptomycin and all cells were incubated in a humidified atmosphere with 5% CO2 at 37° C.
# The proliferation inhibition potential of DMDD was determined in human breast cancer cell lines MCF-7 and BT20 by a fluorescence dye staining method with the normal cell line HMEC serving as a control. Cells were seeded at a density of 4˜5×10^3 cells/well in a 96-well tissue culture-treated plate (Corning Costar) and were incubated overnight. They were then treated with DMDD at final concentrations of 320 μM, 100 μM, 32 μM, 10 μM, 3.2 μM, 1 μM, and 0.32 μM. An experimental control with cells only was also included. After incubation for 48 h, the viability of cells was assessed using PrestoBlue dye (Invitrogen) according to manufacturer's protocol. The fluorescence intensity was measured on a SpectraMax M2e microplate reader (Molecular Devices, Inc.) at a fluorescent excitation wavelength of 555 nm and emission wavelength of 590 nm. The results were expressed as a percentage, relative to untreated control cells, and the half maximal inhibitory concentration (IC50) values were calculated using non-linear regression analysis.
# [2] = test system: BT20; assay: Cytochrome c release assay; assay type: cell-based, human; details: BT20, 48 h
# Experimental: (§1) MCF-7 and BT20 cells were seeded in a 96-well plate (Corning Costar) at a density of 8,000 cells/well and were subsequently treated with 100 μM of DMDD for 48 h. The percentage of cells releasing cytochrome c from mitochondria was determined using the FlowCellect Cytochrome c Kit (Millipore) according to the manufacturer's protocol. Briefly, cells were permeabilized, fixed, and stained with either anti-IgG1-FITC Isotype control or anti-Cytochrome c-FITC dye. Data was acquired and analyzed using a Guava flow cytometer and InCyte software (Millipore).
# [3] = test system: MCF-7; assay: Cytochrome c release assay; assay type: cell-based, human; details: MCF-7, 48 h
# Experimental: as §1
# [4] = test system: BT20; assay: Oxidative stress determination (DHE, HCS); assay type: cell-based, human; details: 48 h
# Experimental: MCF-7 and BT20 cells were seeded in a 96-well tissue culture-treated plate (Corning Costar) at a density of 8,000 cells/well and were subsequently treated with different concentrations (10, 32, 100 μM) of DMDD for 48 h. Non-treated cells served as negative control, and cells treated with 1 μM Retenone served as positive control. Afterwards, the cells were stained with Hoechst 33342 (Thermo Scientific) and dihydroethidium (DHE) (Sigma), fixed and evaluated on an ArrayScan VTI HCS Reader (Thermo Scientific). The generation of ROS in cells was quantified by the oxidation of non-fluorescent DHE to fluorescent ethidium, which subsequently binds to DNA. The Nuclear Translocation BioApplication software (Thermo Scientific) was used for image acquisition and analysis. For each well, at least 400 cells were automatically acquired and analyzed. Oxidative stress activation was assessed by the DHE staining in the nucleus and measured by the average intensity of fluorescent ethidium in the identified nuclear region (MEAN_CircAvgIntenCh2).
# [5] = test system: LPS-induced TNF-α production in THP-1 cells; assay: Human TNF-α ELISA, LPS induced THP-1 cells; assay type: cell-based; details: THP-1, 12.5-50 μM pretreatment 30 min, 100 ng/ml LPS 4 h
# Experimental: THP-1 cells were seeded in a 96 well plate at a density of 5×10^5 cells/well, and incubated with 100 nM phorbol-12-myristate-13-acetate (PMA) (Sigma) for 72 h. […] Dexamethasone at 1 μM (Sigma) was used as a positive control. After 4 h of stimulation, supernatants were collected for the quantification of human TNF-α using the Duoset enzyme-linked immunosorbent assay (ELISA) development kit (R&D Systems). AlamarBlue cell viability reagent (Invitrogen) was used to access cell integrity, after the supernatant was removed, at a fluorescent excitation wavelength of 555 nm and emission wavelength of 590 nm.
# [6] = test system: THP-1; assay: AlamarBlue cell viability of THP-1 cells; assay type: cell-based, human; details: with or without LPS stimulation
# Experimental: THP-1 cells were seeded in a 96 well plate at a density of 5×10^5 cells/well, and incubated with 100 nM phorbol-12-myristate-13-acetate (PMA) (Sigma) for 72 h. After washing the wells with warm RPMI 1640 medium, cells were pretreated with various concentrations of DMDD (10, 32, 100 μM) for 30 minutes followed by 100 ng/ml Salmonella enterica serotype typhimurium lipopolysaccharide (LPS) (Sigma). Dexamethasone at 1 μM (Sigma) was used as a positive control. After 4 h of stimulation, supernatants were collected for the quantification of human TNF-α using the Duoset enzyme-linked immunosorbent assay (ELISA) development kit (R&D Systems). AlamarBlue cell viability reagent (Invitrogen) was used to access cell integrity, after the supernatant was removed, at a fluorescent excitation wavelength of 555 nm and emission wavelength of 590 nm.
# [7] = test system: NF-κB nuclear translocation in MCF-7 cells; assay: Inhibition of TNF-α activated NF-κB translocation (HCS); assay type: cell-based, human; details: MCF-7, 2 h, 10 ng/ml TNF-α; concentration-dependent
# Experimental: MCF-7 cells were seeded in a 96 well plate (Corning Costar) at a density of 8,000 cells/well and then treated with 100 μM DMDD for 2 h, followed by the addition of 10 ng/ml tumor necrosis factor-alpha (TNF-α) (Sigma). Untreated cells and cells treated with 10 ng/ml TNF-α alone served as controls. Cells were fixed, permeabilized, and sequentially stained with Nuclear factor kappa B (NF-κB) primary antibody, Dylight 488-conjugated secondary antibody, and Hoechst 33342 dye. The Hoechst and DyLight fluorophores detect changes in nuclear morphology (blue fluorescence) and NF-κB distribution (green fluorescence), respectively. The samples were analyzed on an Arrayscan VTI HCS Reader (Thermo Scientific). The Nuclear Translocation BioApplication (Thermo Scientific) was used for image acquisition and analysis. For each well, at least 400 cells were automatically acquired and analyzed. The translocation index was calculated by measuring the average intensity difference of NF-κB between the identified cytoplasmic region and nuclear region (MEAN_CircRingAvgIntenDiffCh2).
# [8] = test system: NF-κB nuclear translocation in BT20 cells; assay: as above; assay type: cell-based, human; details: BT20, 10 ng/ml TNF-α; 10 μM more significant than 32 and 100 μM
smiles,measurement,setting,value
"CCCCCCCCCCCCC1=CC(=O)C=C(OC)C1=O [DMDD, 2-dodecyl-6-methoxycyclohexa-2,5-diene-1,4-dione]",cell death,[1]; 3.2 μM,not affected
same,cell death,[1]; 10 μM,12.7%
same,IC50,"[1]; Homo sapiens, HMEC normal cells, 48 h treatment",48.1 µM
same,cytochrome c release from mitochondria,[2],released
same,cytochrome c release from mitochondria,[3],released
same,ROS level versus untreated control,"[4]; BT20, 10 μM",nearly two-fold
same,ROS level versus non-treated control,"[4]; BT20, 33 μM",nearly three-fold
same,ROS level versus untreated control,"[4]; BT20, 100 μM",nearly two-fold
same,TNF-α level in supernatants relative to LPS alone,[5],significant reduction
same,viability of THP-1 cells,[6],did not affect the viability
same,inhibition of TNF-α-induced NF-κB nuclear translocation,[7],significant inhibition
same,inhibition of TNF-α-induced NF-κB nuclear translocation,[8],significant inhibition
